Source: patent US20260184707A1, “PHARMACEUTICAL COMPOUNDS FOR THE TREATMENT OF COMPLEMENT MEDIATED DISORDERS” (ALEXION PHARMACEUTICALS, INC., priority 2022, published 2026)
pIC50: −log10 of the molar value.

Target: T1, Human complement C1s enzyme (Homo sapiens, UniProt P09871)
T1 construct: purified from human serum, Complement Technology, Inc; purchased Complement Technology, Inc; host or cells: human serum (plasma-derived native protein)
T1 sequence (P09871 438-688 limits assumed): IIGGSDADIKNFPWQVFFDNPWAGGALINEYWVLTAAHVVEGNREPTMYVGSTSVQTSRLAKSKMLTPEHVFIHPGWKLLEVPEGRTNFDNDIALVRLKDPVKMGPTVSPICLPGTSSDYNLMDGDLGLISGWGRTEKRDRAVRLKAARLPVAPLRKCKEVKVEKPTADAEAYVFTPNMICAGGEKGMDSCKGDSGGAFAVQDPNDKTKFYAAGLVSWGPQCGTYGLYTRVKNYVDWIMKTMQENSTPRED
T1 sequence (P09871 16-437 partner limits assumed): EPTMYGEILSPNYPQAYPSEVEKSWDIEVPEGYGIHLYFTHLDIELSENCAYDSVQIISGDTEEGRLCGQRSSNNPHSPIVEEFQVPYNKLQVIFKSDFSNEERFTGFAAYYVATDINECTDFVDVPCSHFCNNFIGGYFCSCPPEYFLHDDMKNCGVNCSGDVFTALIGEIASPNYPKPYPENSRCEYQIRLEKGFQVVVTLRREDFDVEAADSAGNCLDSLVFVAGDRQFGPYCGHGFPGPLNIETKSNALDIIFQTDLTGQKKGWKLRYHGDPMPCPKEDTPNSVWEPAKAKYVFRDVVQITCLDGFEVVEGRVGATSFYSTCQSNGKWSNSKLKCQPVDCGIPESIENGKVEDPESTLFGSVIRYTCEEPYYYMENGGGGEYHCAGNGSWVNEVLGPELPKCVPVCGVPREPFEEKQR
Assay: Human C1s enzyme assay
Type: biochemical
Conditions: human complement C1s enzyme 1.16 nM, substrate Z-L-Lys-SBzl, A405; read-out: IC50 (Stars)
Outline: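 Thioesterase activity followed colorimetrically (DTNB, A405, 30-s reads) using 100 μM Z-L-Lys-SBzl substrate. Enzyme, human serum-derived C1s at 1.16 nM final, was incubated with test compound for 5 min, room temperature, pH 7.5 Tris buffer with 1 M NaCl. Rate-versus-concentration data fitted by nonlinear regression for IC50.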

SMILES | pIC50
O=C(Cn1cncc(NCc2nnc(-c3ccccc3)s2)c1=O)NCc1cc2cnccc2[nH]1 [Compound 485, N-((1H-pyrrolo[3,2-c]pyridin-2-yl)methyl)-2-(6-oxo-5-(((5-phenyl-1,3,4-thiadiazol-2-yl)-methyl)amino)pyrimidin-1(6H)-yl)acetamide] | > 7.00
O=C(Cn1cncc(NCc2cc3ccccc3o2)c1=O)NCc1cc2cnccc2[nH]1 [Compound 486, N-((1H-pyrrolo[3,2-c]pyridin-2-yl)methyl)-2-(5-((benzofuran-2-ylmethyl)amino)-6-oxopyr-imidin-1(6H)-yl)acetamide] | > 7.00
C[C@@H](Nc1cnc(N2CCCCC2)n(CC(=O)NCc2cc3cnccc3[nH]2)c1=O)c1nc(-c2ccccc2)co1 [Compound 487, (R)—N-((1H-Pyrrolo[3,2-c]pyridine-2-yl)methyl)-2-(6-oxo-5-((1-(4-phenyloxazol-2-yl)ethyl)amino)-2-(piperidin-1-yl)pyrimidin-1(6H)-yl) acetamide] | > 7.00
C[C@@H](Nc1cnc(N2CCCCC2)n(CC(=O)NCc2cc3cnccc3[nH]2)c1=O)c1ncc(-c2ccccc2)o1 [Compound 488, (R)-N-((1H-pyrrolo[3,2-c]pyridin-2-yl)methyl)-2-(6-oxo-5-((1-(5-phenyloxazol-2-yl)-ethyl)amino)-2-(piperidin-1-yl)pyrimidin-1(6H)-yl)acet-amide] | > 7.00
O=C(CN1C(=O)[C@H](NCCCc2ccccc2)CC[C@H]1c1ccccc1)NCc1cc2cnccc2[nH]1 [Compound 490, N-((1H-pyrrolo[3,2-c]pyridin-2-yl)methyl)-2-((3R,6S)-2-oxo-6-phenyl-3-((3-phenylpropyl)-amino)piperidin-1-yl)acetamide] | < 6.00
C[C@@H](Nc1nnc(N2CCCCC2)n(CC(=O)NCc2cc3cnccc3[nH]2)c1=O)c1ccc2oc3ccccc3c2c1 [Compound 491, (R)-N-((1H-pyrrolo[3,2-c]pyridin-2-yl)methyl)-2-(6-((1-(dibenzo[b,d]furan-2-yl)ethyl)-amino)-5-oxo-3-(piperidin-1-yl)-1,2,4-triazin-4(5H)-yl)-acetamide] | > 7.00
O=C(Cn1c(N2CCOCC2)cnc(NC(=O)c2coc(-c3ccccc3)n2)c1=O)NCc1cc2cnccc2[nH]1 [Compound 492, N-(4-(2-(((1H-Pyrrolo[3,2-c]pyridine-2-yl)methyl)amino)-2-oxoethyl)-5-morpholino-3-oxo-3,4-dihydropyrazin-2-yl)-2-phenyloxazole-4-carboxamide] | > 7.00
O=C(Cn1c(N2CCCCC2)cnc(N[C@H](CO)c2ccc3oc4ccccc4c3c2)c1=O)NCc1cc2cnccc2[nH]1 [Compound 493, (S)—N-((1H-Pyrrolo[3,2-c]pyridine-2-yl)methyl)-2-(3-((1-(dibenzo[b,d]furan-2-yl)-2-hydroxyethyl)amino)-2-oxo-6-(piperidin-1-yl)pyrazin-1(2H)-yl)acetamide] | < 6.00
O=C(Cn1c(N2CCCCC2)cnc(N[C@H](CF)c2ccc3oc4ccccc4c3c2)c1=O)NCc1cc2cnccc2[nH]1 [Compound 494, (S)-N-((1H-pyrrolo[3,2-c]pyridin-2-yl)methyl)-2-(3-((1-(dibenzo[b,d]furan-2-yl)-2-fluoroethyl)amino)-2-oxo-6-(piperidin-1-yl)pyrazin-1(2H)-yl)acetamide] | < 6.00
